Results as given in patent US20120189670A1, “PHARMACEUTICAL COMPOSITIONS AND FORMULATIONS INCLUDING INHIBITORS OF THE PLECKSTRIN HOMOLOGY DOMAIN AND METHODS FOR USING SAME” (priority 2009, published 2012).
≈ marks a conversion by molar mass, not a printed value. Read-outs that look alike come from different tables or passages of the source. One block for each compound: values may come before it.

What was measured:
[1] = Metabolic stability, incubation with HT-29 cells; type: in vitro ADME; settings: human
Description: Compound 6 was too insoluble to obtain data.

[2] = target: T1, AKT (phospho-Ser^473 AKT) in HT-29 colon cancer cells (Homo sapiens, UniProt P31749); experiment: Inhibition of phospho-Ser473 AKT in HT-29 colon cancer cells (Table 11); type: cell-based; settings: human HT-29 colon cancer cells
T1 construct: endogenous in cells; host or cells: HT-29
Procedure: AKT activity was measured by Western blotting using anti-phosphoSer437 AKT antibody. Downstream targets of AKT were detected also by Western blotting using specific anti-phospho antibodies and anti-actin was used as a loading control.
AKT activity was measured by Western blotting using anti-phospho-[…] AKT antibody, PDK activity by anti-phospho-Ser241 PDK antibody as well as downstream target PKC using pan-phospho PKC antibodies. Anti-actin was used as a loading control.

IRS1 PH domain = target: T2, IRS1 PH domain (Homo sapiens, UniProt P35568); experiment: SPR direct binding, KD, IRS1 PH domain; settings: Table 10, SPR; for Kd: read-out: 1RS1 PH mKD
T2 sequence (P35568 12-115 limits assumed): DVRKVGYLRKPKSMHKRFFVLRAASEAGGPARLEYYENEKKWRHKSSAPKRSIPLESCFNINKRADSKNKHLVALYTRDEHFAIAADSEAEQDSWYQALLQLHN
Procedure: (§1) Binding assays using SPR and an ELISA competitive binding assay were used to measure the binding affinity (KD) of the compounds to all three PH domains. SPR was carried out as described above. […] Purified GST-PH domains were incubated with increasing concentrations of the compounds under analysis for about 4 hours in 0.2 M carbonate buffer pH 9.4 and were added to the 96-well plate and incubated overnight at 4° C. Following incubation, the plate was washed 4 times with phosphate buffered 0.9% NaCl (PBS), blocked with 3% bovine serum albumin (BSA) in PBS and 0.01% Tween for 1 hour, washed again 4 times with PBS and mouse monoclonal anti-glutathione-S-transferase antibody in 3% BSA (1:2000) was added for 1 hr at room temperature with shaking. The plate was washed 4 times with PBS and an anti-mouse IgG horseradish peroxidase coupled antibody (dilution 1:2000 in 3% BSA) was added for 1 hr. After 4 washes with PBS, 2,2′-azinobis[3-ethylbenzothiazoline-6-sulfonic acid]-diammonium salt (ABST) was added and the reaction was allowed to develop for 30 min.

[3] = Cytotoxicity in HT-29 cells; type: cell-based, human; settings: human
HT-29 cells = experiment: Cytotoxicity in HT-29 cells; type: cell-based, human
Solubility (Table 11) = type: physicochemical
[4] = Pharmacokinetics of compound 316 in scid mice; type: in vivo, mouse
[5] = type: in vivo
[6] = target: T3, AKT (phospho-Ser^473 AKT) in NIH3T3 cells (Mus musculus, UniProt P31750); experiment: Inhibition of phospho-Ser473 AKT in NIH3T3 cells; type: cell-based
T3 construct: endogenous in cells; host or cells: NIH3T3
Procedure: […]. […] AKT activity was measured by Western blotting using anti-phosphoSer437 AKT antibody. Downstream targets of AKT were detected also by Western blotting using specific anti-phospho antibodies and anti-actin was used as a loading control.

[7] = target: AKT (phospho-Ser-AKT) in HT-29 xenograft tumors (Homo sapiens, UniProt P31749); experiment: Tumor phospho-Ser-AKT in HT-29 xenografts; type: in vivo, mouse; settings: 4 hours after a single 250 mg/kg dose
PH domain of PDK1 = target: T4, PH domain of PDK1 (Homo sapiens, UniProt O15530); experiment: SPR direct binding, KD, PDK1 PH domain; settings: Table 10, SPR; read-out: PDK1 PH mKD
T4 sequence (O15530 459-550 limits assumed): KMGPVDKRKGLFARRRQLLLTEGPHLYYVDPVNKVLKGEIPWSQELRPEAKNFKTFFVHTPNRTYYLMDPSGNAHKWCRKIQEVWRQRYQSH
Procedure: as §1

AKT PH domain [8] = target: T5, AKT PH domain (Homo sapiens, UniProt P31749); settings: purified AKT PH domain, SPR
[9] = tested on: MiaPaca-2 pancreatic cell line; experiment: Apoptosis, morphological assay, MiaPaca-2; type: cell-based, human; settings: MiaPaca-2, 20 μmol/L
Description: (§2) AKT inhibition leads to cellular apoptosis.

[10] = tested on: MiaPaca-2 pancreatic cell line; experiment: MTT cell survival, MiaPaca-2; type: cell-based; settings: Homo sapiens, MIA PaCa-2; MiaPaca-2, MTT
Description: as §2

[11] = tested on: Panc-1 pancreatic cell line; experiment: MTT cell survival, Panc-1; type: cell-based; settings: Homo sapiens; Panc-1, MTT
[12] = tested on: Panc-1 pancreatic cell line; experiment: Apoptosis, morphological assay, Panc-1; type: cell-based, human; settings: Panc-1, 20 μmol/L
Description: as §2

pancreatic cancer cells = experiment: Cell viability assay (Table 3); settings: viability assay; cell line not given
[13] = target: T6, AKT (phospho-Ser^473-AKT) in HT-29 lung cancer cells (Homo sapiens, UniProt P31749); experiment: Western blot phospho-Ser473-AKT in HT-29 cells (Table 2); type: cell-based; settings: read-out: AKT inhibition (IC50)
T6 construct: endogenous in cells; host or cells: HT-29
Description: as §2

HT-29 lung cancer cells = experiment: MTT cell survival in HT-29 cells (Table 2); type: cell-based; settings: Homo sapiens
[14] = pH solubility profile / pKa; type: physicochemical; settings: aqueous buffer solutions, from pH-solubility profile
Procedure: These samples were then rotated at room temperature for 24 hours. After rotation, if there was no evidence of precipitated compound, additional compound 104 was added and the dissolution processes were repeated. […] HPLC Assay. […] The run time was 5 minutes and the injection volume was 2 μL.

SKOV-3 ovarian cancer = experiment: Antitumor activity, oral gavage, SKOV-3 xenograft; type: in vivo, mouse; settings: SKOV-3, 250 mg/kg BID × 10 D oral
AKT PH domain [15] = target: T5, AKT PH domain; experiment: SPR direct binding (Biacore 2000), KD; design: made in house; settings: purified AKT PH domain
Procedure: as §1

[16] = incubating with HT-29 cells at maximum DMEM concentration at 37° C., read-out: Metabolic half life
[17] = HT-29 cell culture conditions, read-out: half lives under cell culture conditions

T3 sequence (P31750 whole entry): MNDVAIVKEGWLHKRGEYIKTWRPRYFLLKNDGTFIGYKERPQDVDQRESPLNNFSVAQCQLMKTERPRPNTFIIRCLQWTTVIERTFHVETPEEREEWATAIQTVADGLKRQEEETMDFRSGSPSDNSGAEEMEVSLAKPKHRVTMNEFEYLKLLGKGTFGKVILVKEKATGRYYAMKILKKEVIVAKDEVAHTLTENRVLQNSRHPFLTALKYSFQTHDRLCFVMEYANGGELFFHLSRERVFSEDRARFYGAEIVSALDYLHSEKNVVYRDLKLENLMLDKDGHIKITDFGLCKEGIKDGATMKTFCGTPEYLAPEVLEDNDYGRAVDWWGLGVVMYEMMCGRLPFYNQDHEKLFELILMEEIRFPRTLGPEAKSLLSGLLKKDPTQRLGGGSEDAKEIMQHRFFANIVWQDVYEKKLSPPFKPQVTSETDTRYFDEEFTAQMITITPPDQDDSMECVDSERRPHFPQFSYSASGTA
T1 sequence (P31749 whole entry): as the sequence (P31750 whole entry) above, with N2S, S50A, A100T, R112K, T117E, T389K, N410G, D415H counted along it
T5 sequence (P31749 5-108 limits assumed): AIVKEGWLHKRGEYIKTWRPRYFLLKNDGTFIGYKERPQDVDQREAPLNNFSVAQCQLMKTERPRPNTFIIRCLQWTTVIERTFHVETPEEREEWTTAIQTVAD
AKT (phospho-Ser-AKT) in HT-29 xenograft tumors, sequence (P31749 whole entry, the tested form may be a part): as the sequence (P31750 whole entry) above, with N2S, S50A, A100T, R112K, T117E, T389K, N410G, D415H counted along it
T6 sequence (P31749 whole entry): as the sequence (P31750 whole entry) above, with N2S, S50A, A100T, R112K, T117E, T389K, N410G, D415H counted along it

half-life [1, 16]: > 8 h | IC50 [2]: > 20 µM | 1RS1 PH mKD (IRS1 PH domain): low KD | Kd (IRS1 PH domain): 0.14 ± 0.02 µM | solubility (Solubility (Table 11)): 12.9 µM (≈ 6.17 µg/mL)
Structure (SMILES): CC1=NN(C(=O)c2ccc(N)cc2)C(=O)C1/N=N/c1ccc(S(=O)(=O)Nc2ncccn2)cc1 (centres unmarked) [Compound 333]
IC50 [3]: > 100 µM | Cytotoxicity (IC50 μM) (HT-29 cells): no cytotoxicity

Structure (SMILES): CC1=NN(C(=O)c2ccc(Cl)cc2)C(=O)C1/N=N/c1ccc(S(=O)(=O)Nc2ncccn2)cc1 (centres unmarked) [Compound 316, (E)-4-((1-(4-chlorobenzoyl)-3-methyl-5-oxo-4,5-dihydro-1H-pyrazol-4-yl)diazenyl)-N-(pyrimidin-2-yl)benzenesulfonamide]
peak plasma concentration ([4]; single dose 250 mg/kg i.p.): 1.4 nM | peak plasma concentration ([4]; single dose 250 mg/kg oral): 600 nM | half-life [1, 17]: 1 to 2 h | half-life [1, 16]: 1.03 h | toxicity of repeated doses ([5]; five daily doses of 250 mg/kg i.p.): moderate neutropenia | toxicity of a single dose ([5]; single dose of up to 250 mg/kg i.p.): no toxicity | IC50 [6]: 4 µM | tumor phospho-Ser-AKT [7]: inhibition of tumor phospho-Ser-AKT was observed | solubility (Solubility (Table 11)): 17.9 µM (≈ 8.91 µg/mL)

half-life [1, 17]: 1 to 2 h | half-life [1, 16]: 2.3 h | IC50 [2]: > 20 µM | 1RS1 PH mKD (IRS1 PH domain): low KD | Kd (IRS1 PH domain): 1.74 ± 0.41 µM | Kd (PH domain of PDK1): 0.42 µM | IC50 [6]: 5 µM | solubility (Solubility (Table 11)): 13.1 µM (≈ 6.28 µg/mL)
Structure (SMILES): CC1=NN(C(=O)c2ccc(O)cc2)C(=O)C1/N=N/c1ccc(S(=O)(=O)Nc2ncccn2)cc1 (centres unmarked) [Compound 360]
IC50 [3]: > 100 µM | Cytotoxicity (IC50 μM) (HT-29 cells): no cytotoxicity

Ki (AKT PH domain [8]): ~0.3 µM
Structure (SMILES): CCCCCCCC(=O)OC[C@H](COP(=O)(O)O[C@H]1[C@H](O)[C@@H](OP(=O)(O)O)[C@H](OP(=O)(O)O)[C@@H](OP(=O)(O)O)[C@H]1O)OC(=O)CCCCCCC [diC8-PtdIns(3,4,5)P3]

Structure (SMILES): COCCOCCOCC(=O)Nc1ccc(S(=O)(=O)Nc2nncs2)cc1 [Compound 103]
Apoptosis at 20 μmol/L [9]: 18.7 ± 3.1% | IC50 [10]: > 100 µM | IC50 [11]: > 100 µM | Apoptosis at 20 μmol/L [12]: 11.4 ± 0.5/ %

Structure (SMILES): Nc1ccc(S(=O)(=O)Nc2nncs2)cc1 [Compound 100, 4-Amino-N-(1,3,4-thiadiazol-2-yl)benzenesulfonamide]
Apoptosis at 20 μmol/L [9]: 25.7 ± 2.6% | IC50 [10]: > 100 µM | IC50 [11]: > 100 µM | Apoptosis at 20 μmol/L [12]: 24.3 ± 3.2/ % | Cell viability (IC50) (pancreatic cancer cells): N/I

half-life [1, 17]: 1 to 2 h | half-life [1, 16]: 1.52 h | IC50 [2]: > 20 µM | IC50 [6]: > 20 µM | solubility (Solubility (Table 11)): 28.6 µM (≈ 14.9 µg/mL)
Structure (SMILES): CC1=NN(C(=O)c2ccc(C(C)(C)C)cc2)C(=O)C1/N=N/c1ccc(S(=O)(=O)Nc2ncccn2)cc1 (centres unmarked) [Compound 332]
IC50 [3]: 25 µM

IC50 [13]: 5 µM
Structure (SMILES): O=C(O)c1ccccc1C(=O)Nc1ccccc1SCCS(=O)(=O)c1ccc(Cl)cc1 [Compound 389]
IC50 (HT-29 lung cancer cells): > 100 µM

Structure (SMILES): CCCCCCCCCCCCc1ccc(S(=O)(=O)Nc2nncs2)cc1 [Compound 104, 4-Dodecyl-N-(1,3,4-thiadiazol-2-yl)benzenesulfonamide]
Apoptosis at 20 μmol/L [9]: 31.3 ± 1.6% | pKa ([14]; read-out: acidic pKa): 7.9 to 8.3 | pKa ([14]; read-out: additional pKa): > 9 | Growth rate (SKOV-3 ovarian cancer): 122 ± 16 mm^3/10 days | T/C (SKOV-3 ovarian cancer): 28.3%

Structure (SMILES): CCCCCCCCCC(=O)Nc1ccc(S(=O)(=O)Nc2nncs2)cc1 [Compound 101, N-(4-(N-1,3,4-Thiadiazol-2-ylsulfamoyl)phenyl)decanamide]
Apoptosis at 20 μmol/L [9]: 20.0 ± 1.5% | IC50 [10]: 90 µM | IC50 [11]: 127 µM | Apoptosis at 20 μmol/L [12]: 28.7 ± 0.3/ %

KD (AKT PH domain [15]): did not appear to bind
Structure (SMILES): CC(=O)Nc1ccc(S(=O)(=O)Nc2nncs2)cc1 [Compound 102, N-(4-(N-1,3,4-Thiadiazol-2-ylsulfamoyl)phenyl)acetamide]
IC50 [10]: > 100 µM | IC50 [11]: > 100 µM
